Measurements from the CheMixHub viscosity set.

Experiment: xn = mol fraction of the nth substance listed

FC(F)(Cl)Cl + CC(F)F
101 kPa, x1 = 0.606
Conditions | viscosity [mPa·s]
295.47 K | 0.199
311.17 K | 0.1745

CCCCNCCCC + CCC(=O)O
viscosity [mPa·s], 101.33 kPa
Conditions | 293.15 K | 293.5 K | 298.15 K | 303.15 K | 308.15 K | 313.15 K | 318.15 K | 323.15 K
x2 = 0.2 | – | 2.45 | 2.21 | 2.05 | 1.87 | 1.69 | 1.54 | 1.44
x2 = 0.4 | 20.21 | – | 15.81 | 12.24 | 9.94 | 7.97 | 6.42 | 5.61
x2 = 0.5 | – | – | – | 48.04 | 35.66 | 27.31 | 21.32 | 17.49
x2 = 0.6 | 109.3 | – | 80.86 | 64.2 | 49.41 | 39.46 | 31.87 | 25.8
x2 = 0.7 | 125.9 | – | 94.32 | 72.81 | 54.5 | 42.04 | 34.15 | 27.7
x2 = 0.75 | 139.3 | – | 102.5 | 74.31 | 58.19 | 44.26 | 35.31 | 27.67
x2 = 0.8 | 16.74 | – | 14.24 | 11.85 | 10.22 | 8.75 | 7.62 | 6.98

CCCC(=O)O + CCC(C)=O
viscosity [mPa·s], 101 kPa
Conditions | x2 = 0.1024 | x2 = 0.2043 | x2 = 0.3057 | x2 = 0.4065 | x2 = 0.5067 | x2 = 0.6064 | x2 = 0.7056 | x2 = 0.8043 | x2 = 0.9024
293.15 K | 1.383 | 1.236 | 1.1 | 0.9737 | 0.8582 | 0.7526 | 0.6569 | 0.571 | 0.4948
303.15 K | 1.2 | 1.078 | 0.9646 | 0.8589 | 0.761 | 0.6716 | 0.5897 | 0.515 | 0.4485
313.15 K | 1.021 | 0.9263 | 0.8368 | 0.7525 | 0.6733 | 0.5989 | 0.5293 | 0.4645 | 0.4044

COCCO + CCC(C)=O
viscosity [mPa·s]
Conditions | 298.15 K | 308.15 K | 318.15 K
101 kPa, x2 = 0.1049 | 1.321 | – | –
101 kPa, x2 = 0.2087 | 1.113 | – | –
101 kPa, x2 = 0.3115 | 0.937 | – | –
101 kPa, x2 = 0.413 | 0.78 | – | –
101 kPa, x2 = 0.5135 | 0.64 | – | –
101 kPa, x2 = 0.6128 | 0.525 | – | –
101 kPa, x2 = 0.7112 | 0.464 | – | –
101 kPa, x2 = 0.8085 | 0.43 | – | –
101 kPa, x2 = 0.9047 | 0.41 | – | –
101.33 kPa, x1 = 0.1014 | 0.423 | 0.378 | 0.339
101.33 kPa, x1 = 0.2118 | 0.474 | 0.419 | 0.373
101.33 kPa, x1 = 0.3001 | 0.53 | 0.469 | 0.418
101.33 kPa, x1 = 0.3864 | 0.591 | 0.521 | 0.463
101.33 kPa, x1 = 0.4984 | 0.695 | 0.607 | 0.534
101.33 kPa, x1 = 0.601 | 0.805 | 0.696 | 0.607
101.33 kPa, x1 = 0.695 | 0.938 | 0.802 | 0.692
101.33 kPa, x1 = 0.8004 | 1.12 | 0.945 | 0.803
101.33 kPa, x1 = 0.9019 | 1.334 | 1.108 | 0.931
